Source: PMC8151276, “An Integrated Approach toward NanoBRET Tracers for Analysis of GPCR Ligand Engagement” (Molecules, 2021)

How the values were obtained:
Assay type in all cases: binding
[1] = biological target: T1, HTR1D (Homo sapiens, UniProt P28221); assay: NanoBRET screen HiBiT-HTR1D in HEK293
T1 construct: purchased Promega (in-house HiBiT-GPCR construct library, NanoBRET)
Procedure: (§1) Each tracer candidate was screened across the entire library of HiBiT-GPCR constructs using NanoBRET as the detection modality. As depicted in Figure 4A, the specificity of interactions was evaluated through decrease in BRET due to competitive displacement of a bound tracer by excess parental compound. Each tracer was analyzed for binding to each HiBiT-GPCR fusion in the absence and in the presence of competing parental compound. Briefly, HEK293 cells were transfected with HiBiT-GPCR constructs diluted into promoterless DNA to reduce expression and maximize translocation to the cell surface. Each tracer candidate was then screened at concentrations of 1 μM and 0.1 μM across cells expressing these fusions. Cells were treated for 1.5 h with tracer either alone or in the presence of 20 μM competing parental compound (i.e., control). BRET was measured upon addition of purified LgBiT and subsequent complementation with HiBiT genetically fused to a GPCR. The specificity of interactions was assessed through a decrease in BRET signal due to competitive displacement of the bound tracer. To further gauge the robustness of these interactions, the fold response over the control (i.e., BRETtracer/BRETcontrol) was calculated. We chose a 1.5-fold response, which translates to ≥7-fold signal over noise as the minimal threshold required to score an interaction as positive. […]. Below we highlight the screening results obtained for our exemplary fluorescent tracers based on Clozapine, Amitriptyline and AZD1283.
(§2) HiBiT-GPCR DNA constructs were diluted in 10 mM Tris pH 8 to a final concentration of 0.01 μg/μL, arrayed in 96-well plates and stored at −20 °C. For transfection, HEK293 cells were suspended in Opti-MEM (without phenol red) supplemented with 2% fetal bovine serum (Seradigm) and 100 units/mL penicillin–streptomycin (Gibco) at a final concentration of 220,000 cells/mL and dispensed into white 96-well plates at 90 μL/well. Subsequent transfections and screens were carried using an Agilent Bravo Automated Liquid Handling Platform. First, the 96-well HiBiT DNA arrays were diluted 25-fold in Opti-MEM (without serum or phenol red) to a final concentration of 0.0004 μg/μL and 20 μL of the diluted DNAs were transferred into new 96-well plates. Next, promoterless carrier DNA (1 μg/μL) was diluted 25-fold (0.04 μg/μL) and then dispensed into the diluted arrays at 20 μL/well. Following brief mixing, Viafect transfection reagent (Promega) diluted 16-fold into Opti-MEM was dispensed into the plates at 40 μL/well. After mixing by pipetting, plates were incubated for 10 min on the pipetting station deck. The DNA-transfection reagent complexes were then added to plates containing cells. To facilitate the screen, 10 μL of DNA-transfection reagent complexes were added in duplicates to the top 4 and bottom 4 rows, resulting in two identical 48-well arrays per plate. Plates with transfected cells were incubated for 18–20 h at 37 °C/5% CO2. A screen of each tracer across the entire library using two different concentrations requires duplicate plates of transfected cells. Depending on the number of tracers being screened, transfections can be scaled up using the same ratios. The next day, for each tracer, four 20× screening solutions in tracer dilution buffer (Promega) were prepared: two duplicates at final concentration of 20 μM and two duplicates at a final concentration of 2 μM. A competing unmodified compound was added to one of each duplicate at a final concentration of 400 μM. The four resulting solutions were diluted 4-fold in Opti-MEM without serum or phenol red to generate 5× solutions (5 µM and 0.5 µM tracer +/− 100 μM competing compound). To screen the library, a BioTek MultiFlo FX liquid dispenser was used to dispense 22.5 µL of tracer solution to the top 4 rows and 22.5 µL tracer + competing compound solution to the 4 bottom rows. Plates were briefly mixed on an orbital shaker and incubated for 1.5 h at room temperature. […]

[2] = biological target: T2, F2RL2 (Homo sapiens, UniProt O00254); assay: NanoBRET screen HiBiT-F2RL2 in HEK293
T2 construct: purchased Promega (in-house HiBiT-GPCR construct library, NanoBRET)
T2 sequence (O00254 22-374): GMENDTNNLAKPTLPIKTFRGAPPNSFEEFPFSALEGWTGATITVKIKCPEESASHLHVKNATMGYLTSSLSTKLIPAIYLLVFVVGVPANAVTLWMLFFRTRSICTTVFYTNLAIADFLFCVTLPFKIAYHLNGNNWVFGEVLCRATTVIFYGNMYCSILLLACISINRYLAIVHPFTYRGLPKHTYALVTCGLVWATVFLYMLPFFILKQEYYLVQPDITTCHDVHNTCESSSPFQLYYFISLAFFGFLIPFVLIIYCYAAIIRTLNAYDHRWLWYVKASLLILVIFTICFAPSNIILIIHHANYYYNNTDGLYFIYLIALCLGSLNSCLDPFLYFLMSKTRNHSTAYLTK
Procedure: as §1, §2

[3] = biological target: T3, SSTR3 (Homo sapiens, UniProt P32745); assay: NanoBRET screen HiBiT-SSTR3 in HEK293
T3 construct: purchased Promega (in-house HiBiT-GPCR construct library, NanoBRET)
Procedure: as §1, §2

T1 sequence (P28221 whole entry): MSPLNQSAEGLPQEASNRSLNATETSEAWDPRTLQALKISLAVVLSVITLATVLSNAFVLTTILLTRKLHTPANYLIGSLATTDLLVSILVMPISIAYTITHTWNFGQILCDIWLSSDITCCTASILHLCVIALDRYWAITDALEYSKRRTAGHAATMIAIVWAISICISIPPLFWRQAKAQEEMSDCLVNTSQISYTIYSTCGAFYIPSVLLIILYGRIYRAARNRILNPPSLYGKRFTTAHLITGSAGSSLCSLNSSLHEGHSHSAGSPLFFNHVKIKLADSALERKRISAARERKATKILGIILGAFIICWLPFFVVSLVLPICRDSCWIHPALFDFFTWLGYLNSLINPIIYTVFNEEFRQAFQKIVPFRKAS
T3 sequence (P32745 whole entry): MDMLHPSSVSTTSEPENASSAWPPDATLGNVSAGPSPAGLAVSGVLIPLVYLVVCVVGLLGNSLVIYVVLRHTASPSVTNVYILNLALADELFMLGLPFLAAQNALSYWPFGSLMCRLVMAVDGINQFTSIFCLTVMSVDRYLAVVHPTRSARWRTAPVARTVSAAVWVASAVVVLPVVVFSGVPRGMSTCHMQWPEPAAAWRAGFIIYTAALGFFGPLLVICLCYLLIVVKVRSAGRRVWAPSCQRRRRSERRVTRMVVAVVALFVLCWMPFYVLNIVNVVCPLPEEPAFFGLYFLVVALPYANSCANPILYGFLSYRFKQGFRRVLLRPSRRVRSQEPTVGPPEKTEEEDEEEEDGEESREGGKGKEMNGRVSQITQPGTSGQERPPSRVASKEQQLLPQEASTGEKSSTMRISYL

Row | SMILES | NanoBRET Fold Response ([1]; HTR1D, tracer 0.1μM) | NanoBRET Fold Response ([1]; HTR1D, tracer 1μM) | NanoBRET Fold Response ([2]; F2RL2, tracer 0.1μM) | NanoBRET Fold Response ([2]; F2RL2, tracer 1μM) | NanoBRET Fold Response ([3]; SSTR3, tracer 0.1μM) | NanoBRET Fold Response ([3]; SSTR3, tracer 1μM) | NanoBRET Fold Response ([1]; HTR1D, 0.1μM tracer) | NanoBRET Fold Response ([1]; HTR1D, 1μM tracer) | NanoBRET Fold Response ([2]; F2RL2, 0.1μM tracer) | NanoBRET Fold Response ([2]; F2RL2, 1μM tracer) | NanoBRET Fold Response ([3]; SSTR3, 0.1μM tracer) | NanoBRET Fold Response ([3]; SSTR3, 1μM tracer) | other results
1 | O=C(CCc1ccc2n1[B-](F)(F)[N+]1=C(c3ccc[nH]3)C=CC1=C2)NCCOCCOCCNC(=O)OCCOCCN1CCN(C2=Nc3ccccc3Sc3ccccc32)CC1 [Quetiapine-a-2-NB590] | 1.02 | 1.32 | 1.06 | 0.89 | 0.96 | 0.74 |  |  |  |  |  |  | 
2 | Cc1cc2c(s1)Nc1ccccc1N=C2N1CCN(CCCNC(=O)CCOCCOCCOCCOCCNC(=O)CCc2ccc3n2[B-](F)(F)[N+]2=C(c4ccc[nH]4)C=CC2=C3)CC1 [Olanzapine-a-2-NB590] | 1.03 | 1.29 | 0.97 | 1.01 | 0.99 | 1.04 |  |  |  |  |  |  | 
3 | CN1CCN(C2=Nc3cc(Cl)ccc3Nc3ccc(CNC(=O)CCOCCOCCOCCOCCNC(=O)CCc4ccc5n4[B-](F)(F)[N+]4=C(c6ccc[nH]6)C=CC4=C5)cc32)CC1 [Clozapine-b-2-NB590] |  |  |  |  |  |  | 1.08 | 1.48 | 1.01 | 1.02 | 0.99 | 1.02 | 
4 | COc1ccc2c(n1)c(CCNC(C)=O)cn2CCNC(=O)CCc1ccc2n1[B-](F)(F)[N+]1=C(c3ccc[nH]3)C=CC1=C2 [Azamelatonin-1-NB590] |  |  |  |  |  |  |  |  |  |  |  |  | NanoBRET Fold Response ([1]; 0.1μM tracer): 0.68; NanoBRET Fold Response ([1]; 1μM tracer): 0.68; NanoBRET Fold Response ([2]; 0.1μM tracer): 1.00; NanoBRET Fold Response ([2]; 1μM tracer): 1.03; NanoBRET Fold Response ([3]; 0.1μM tracer): 1.03; NanoBRET Fold Response ([3]; 1μM tracer): 1.08
5 | O=C(CCc1ccc2n1[B-](F)(F)[N+]1=C(c3ccc[nH]3)C=CC1=C2)NCc1ccc(C(=O)NCCOCCOCCNCC(O)COc2cccc3ccccc23)cc1 (stereo not drawn) [Propranolol-3-NB590] |  |  |  |  |  |  |  |  |  |  |  |  | NanoBRET Fold Response ([1]; HTR1D, 0.1μM): 1.24; NanoBRET Fold Response ([1]; HTR1D, 1μM): 0.96; NanoBRET Fold Response ([2]; F2RL2, 0.1μM): 0.99; NanoBRET Fold Response ([2]; F2RL2, 1μM): 1.03; NanoBRET Fold Response ([3]; SSTR3, 0.1μM): 0.99; NanoBRET Fold Response ([3]; SSTR3, 1μM): 1.01
6 | O=C(CCOCCOCCOCCOCCNC(=O)CCc1ccc2n1[B-](F)(F)[N+]1=C(c3ccc[nH]3)C=CC1=C2)NCCCN1CCN(C2=Nc3cc(Cl)ccc3Nc3ccccc32)CC1 [Clozapine-a-2-NB590] |  |  |  |  |  |  | 1.21 | 1.67 | 1.02 | 1.20 | 0.91 | 1.05 | 
